Values of other authors, collected in patent publication US20230321114A1, “METHODS OF TREATING AGE-RELATED COGNITIVE DECLINE” (Woolsey Pharmaceuticals, Inc., priority 2020, published 2023).

How the values were obtained:
[1] = in vivo, metabolite
[2] = system: memory in aging rats; details: eighteen-month old rats, 0.1875 or 0.3750 mg per day, single daily injection

O=S(=O)(c1cccc2c(O)nccc12)N1CCCNCC1 [hydroxyfasudil]
half-life [1]: about 8 hours | spatial reference memory ([2]; Morris Water Maze): not in spatial reference memory | working memory ([2]; Morris Water Maze (radial maze)): improvements in working memory
